According to BindingDB's records for PubMed 36240545 (n/a, 2022):

Target: T1, X-box-binding protein 1 (Homo sapiens, UniProt P17861)
T1 sequence (P17861 whole entry): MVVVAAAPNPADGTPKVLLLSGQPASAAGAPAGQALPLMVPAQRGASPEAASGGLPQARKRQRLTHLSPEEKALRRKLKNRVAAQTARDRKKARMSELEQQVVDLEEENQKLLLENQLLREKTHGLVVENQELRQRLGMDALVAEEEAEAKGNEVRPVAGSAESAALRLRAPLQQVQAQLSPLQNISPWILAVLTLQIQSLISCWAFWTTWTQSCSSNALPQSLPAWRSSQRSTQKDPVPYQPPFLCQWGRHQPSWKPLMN
Experiment: Inhibition of thapsigargin-induced XBP1-luciferase activation in human HeLa cells incubated for 24 hrs by luciferase assay

## CO[C@H]1/C=C/C=C/C=C/C[C@H](OC(=O)[C@@H](C)NC(=O)C2CCCCC2)[C@H](C)[C@@H](O)/C(C)=C\CCC2=C(SC)C(=O)C=C(NC(=O)C1)C2=O
  IC50: 67 µM
